According to patent publication US10709706B2, “Nuclear transport modulators and uses thereof” (Karyopharm Therapeutics Inc., priority 2015, dated 2020):

Tests used:
Assay type in all cases: cell-based
MM1S cells = experiment: MTT cell proliferation assay, MM1S cells; details: Homo sapiens, MM1.S, MM1S multiple myeloma cells, approximately 64-72 hours, 1 nM to 30 μM
Experimental: (§1) The MTT cell proliferation assay was used to study the cytotoxic properties of the compounds. The assay was performed according to the method described by Roche Molecular Biochemicals, with minor modifications. The assay is based on the cleavage of the tetrazolium salt, MTT, in the presence of an electron-coupling reagent. The water-insoluble formazan salt produced must be solubilized in an additional step. Cells grown in a 96-well tissue culture plate were incubated with the MTT solution for approximately 4 hours. After this incubation period, a water-insoluble formazan dye formed. After solubilization, the formazan dye was quantitated using a scanning multi-well spectrophotometer (ELISA reader). […] The cells were seeded at 5,000-10,000 cells in each well of 96-well plate in 100 μL of fresh culture medium and were allowed to attach overnight. The stock solutions of the compounds were diluted in 100 μL cell culture medium to obtain eight concentrations of each test compound, ranging from 1 nM to 30 μM. […] All optical densities were measured at 490 nm using a Vmax Kinetic Microplate Reader (Molecular Devices). In most cases, the assay was performed in duplicate and the results were presented as a mean percent inhibition to the negative control±SE. The following formula was used to calculate the percent of inhibition: Inhibition (%)=(1−(ODo/OD))×100.
(§2) The compounds were tested against Z138, MM1S and 3T3 cells. The Z138 cell line is a mature B-cell acute lymphoblastic leukemia cell line derived from a patient with chronic lymphocytic leukemia. The MM1S cell line was established from the peripheral blood of a human multiple myeloma patient. 3T3 cells are standard fibroblast cells; they were originally isolated from Swiss mouse embryo tissue.

Z138 cells = experiment: MTT cell proliferation assay, Z138 cells; details: Homo sapiens, Z-138, approximately 64-72 hours, 1 nM to 30 μM
Experimental: as §1, §2

3T3 cells = experiment: MTT cell proliferation assay, 3T3 cells; details: Mus musculus, NIH3T3, 3T3 fibroblast cells, approximately 64-72 hours, 1 nM to 30 μM
Experimental: as §1, §2

| IC50 (MM1S cells) [µM] | SMILES | IC50 (Z138 cells) [µM] | IC50 (3T3 cells) [µM] |
| --- | --- | --- | --- |
| 0.1 to 5 | NC(=O)/C(=C/c1ccnc(-c2cc(C(F)(F)F)cc(C(F)(F)F)c2)n1)c1ccncc1 [Compound 148, (E)-3-(2-(3,5-bis(trifluoromethyl)phenyl)pyrimidin-4-yl)-2-(pyridin-4-yl)acrylamide] | 0.1 to 5 | > 30 |
| > 30 | Cc1ccc(F)cc1/C(=C\c1ccnc(-c2cc(C(F)(F)F)cc(C(F)(F)F)c2)n1)C(N)=O [Compound 161, (E)-3-(2-(3,5-bis(trifluoromethyl)phenyl)pyrimidin-4-yl)-2-(5-fluoro-2-methylphenyl)acrylamide] | > 30 | > 30 |
| > 30 | NC(=O)/C(=C/c1ccnc(-c2cc(C(F)(F)F)cc(C(F)(F)F)c2)n1)c1csc2ccccc12 [Compound 123, (E)-2-(benzo[b]thiophen-3-yl)-3-(2-(3,5-bis(trifluoromethyl)phenyl)pyrimidin-4-yl)acrylamide] | > 30 | > 30 |
| > 30 | NC(=O)/C(=C/c1ccnc(-c2cc(C(F)(F)F)cc(C(F)(F)F)c2)n1)c1ccc(F)cc1F [Compound 132, (E)-3-(2-(3,5-bis(trifluoromethyl)phenyl)pyrimidin-4-yl)-2-(2,4-difluorophenyl)acrylamide] | > 30 | > 30 |
| 0.1 to 5 | NC(=O)/C(=C/c1ccnc(-c2cc(C(F)(F)F)cc(C(F)(F)F)c2)n1)c1cc2ccccc2o1 [Compound 136, (E)-2-(benzofuran-2-yl)-3-(2-(3,5-bis(trifluoromethyl)phenyl)pyrimidin-4-yl)acrylamide] | 0.1 to 5 | 5 to 30 |
| 0.1 to 5 | NC(=O)/C(Br)=C/c1cncc(-c2cc(C(F)(F)F)cc(C(F)(F)F)c2)n1 [Compound 103, (Z)-3-(6-(3,5-bis(trifluoromethyl)phenyl)pyrazin-2-yl)-2-bromoacrylamide] | 0.1 to 5 | > 30 |
| > 30 | NC(=O)/C(=C/c1ccnc(-c2cc(C(F)(F)F)cc(C(F)(F)F)c2)n1)c1cccc(S(=O)(=O)N2CCC(C(F)(F)F)CC2)c1 [Compound 160, (E)-3-(2-(3,5-bis(trifluoromethyl)phenyl)pyrimidin-4-yl)-2-(3-((4-(trifluoromethyl)piperidin-1-yl)sulfonyl)phenyl)acrylamide] | > 30 | > 30 |
| 5 to 30 | NC(=O)/C(=C/c1ccnc(-c2cc(C(F)(F)F)cc(C(F)(F)F)c2)n1)c1ccc(S(=O)(=O)NC2CC2)cc1 [Compound 128, (E)-3-(2-(3,5-bis(trifluoromethyl)phenyl)pyrimidin-4-yl)-2-(4-(N-cyclopropylsulfamoyl)phenyl)acrylamide] | 5 to 30 | > 30 |
| > 30 | NC(=O)/C(=C/c1ccnc(-c2cc(C(F)(F)F)cc(C(F)(F)F)c2)n1)c1cccc(S(=O)(=O)N2CCCC2)c1 [Compound 162, (E)-3-(2-(3,5-bis(trifluoromethyl)phenyl)pyrimidin-4-yl)-2-(3-(pyrrolidin-1-ylsulfonyl)phenyl)acrylamide] | > 30 | > 30 |
| > 30 | NC(=O)/C(=C/c1ccnc(-c2cc(C(F)(F)F)cc(C(F)(F)F)c2)n1)c1ccc(OC(F)(F)F)cc1 [Compound 134, (E)-3-(2-(3,5-bis(trifluoromethyl)phenyl)pyrimidin-4-yl)-2-(4-(trifluoromethoxy)phenyl)acrylamide] | > 30 | > 30 |
| > 30 | NC(=O)/C(=C\c1cncc(-c2cc(C(F)(F)F)cc(C(F)(F)F)c2)n1)c1cncnc1 [Compound 104, (Z)-3-(6-(3,5-bis(trifluoromethyl)phenyl)pyrazin-2-yl)-2-(pyrimidin-5-yl)acrylamide] | > 30 | > 30 |
| 0.1 to 5 | NC(=O)/C(=C/c1ccnc(-c2cc(C(F)(F)F)cc(C(F)(F)F)c2)n1)c1ccc(S(=O)(=O)N2CCOCC2)cc1 [Compound 151, (E)-3-(2-(3,5-bis(trifluoromethyl)phenyl)pyrimidin-4-yl)-2-(4-(morpholinosulfonyl)phenyl)acrylamide] | 5 to 30 | > 30 |
| 5 to 30 | NC(=O)/C(=C/c1ccnc(-c2cc(C(F)(F)F)cc(C(F)(F)F)c2)n1)c1ccc(S(=O)(=O)C2CC2)cc1 [Compound 122, (E)-3-(2-(3,5-bis(trifluoromethyl)phenyl)pyrimidin-4-yl)-2-(4-(cyclopropylsulfonyl)phenyl)acrylamide] | 0.1 to 5 | > 30 |
| 0.1 to 5 | NC(=O)/C(=C/c1ccnc(-c2cc(C(F)(F)F)cc(C(F)(F)F)c2)n1)c1ccc(S(=O)(=O)N2CCC(F)(F)C2)cc1 [Compound 157, (E)-3-(2-(3,5-bis(trifluoromethyl)phenyl)pyrimidin-4-yl)-2-(4-((3,3-difluoropyrrolidin-1-yl)sulfonyl)phenyl)acrylamide] | 0.1 to 5 | > 30 |
| 0.1 to 5 | NC(=O)/C(=C/c1ccnc(-c2cc(C(F)(F)F)cc(C(F)(F)F)c2)n1)c1cnc(Cl)nc1 [Compound 149, (E)-3-(2-(3,5-bis(trifluoromethyl)phenyl)pyrimidin-4-yl)-2-(2-chloropyrimidin-5-yl)acrylamide] | 0.1 to 5 | > 30 |
| 0.1 to 5 | NC(=O)/C(=C\c1ccnc(-c2cc(C(F)(F)F)cc(C(F)(F)F)c2)n1)c1cncnc1 [Compound 107, (Z)-3-(2-(3,5-bis(trifluoromethyl)phenyl)pyrimidin-4-yl)-2-(pyrimidin-5-yl)acrylamide] | 5 to 30 | > 30 |
| > 30 | NC(=O)/C(=C/c1ccnc(-c2cc(C(F)(F)F)cc(C(F)(F)F)c2)n1)c1cccc(S(=O)(=O)N2CCC2)c1 [Compound 166, (E)-2-(3-(azetidin-1-ylsulfonyl)phenyl)-3-(2-(3,5-bis(trifluoromethyl)phenyl)pyrimidin-4-yl)acrylamide] | > 30 | > 30 |
| > 30 | NC(=O)/C(=C/c1ccnc(-c2cc(C(F)(F)F)cc(C(F)(F)F)c2)n1)c1ccc(F)cc1 [Compound 163, (E)-3-(2-(3,5-bis(trifluoromethyl)phenyl)pyrimidin-4-yl)-2-(4-fluorophenyl)acrylamide] | > 30 | > 30 |
| > 30 | NC(=O)/C(=C/c1ccnc(-c2cc(C(F)(F)F)cc(C(F)(F)F)c2)n1)c1cccc(S(=O)(=O)N2CC(F)(F)C2)c1 [Compound 139, (E)-3-(2-(3,5-bis(trifluoromethyl)phenyl)pyrimidin-4-yl)-2-(3-((3,3-difluoroazetidin-1-yl)sulfonyl)phenyl)acrylamide] | > 30 | – |
| < 0.1 | NC(=O)/C(=C/c1ccnc(-c2cc(C(F)(F)F)cc(C(F)(F)F)c2)n1)c1cncc(Cl)c1 [Compound 147, (E)-3-(2-(3,5-bis(trifluoromethyl)phenyl)pyrimidin-4-yl)-2-(5-chloropyridin-3-yl)acrylamide] | 0.1 to 5 | > 30 |
| 0.1 to 5 | NC(=O)/C(=C/c1ccnc(-c2cc(C(F)(F)F)cc(C(F)(F)F)c2)n1)c1cc(F)nc(F)c1 [Compound 152, (E)-3-(2-(3,5-bis(trifluoromethyl)phenyl)pyrimidin-4-yl)-2-(2,6-difluoropyridin-4-yl)acrylamide] | 0.1 to 5 | > 30 |
| 5 to 30 | O=C(O)/C(=C/c1ccnc(-c2cc(C(F)(F)F)cc(C(F)(F)F)c2)n1)c1cncnc1 [Compound 111, (E)-3-(2-(3,5-bis(trifluoromethyl)phenyl)pyrimidin-4-yl)-2-(pyrimidin-5-yl)acrylic acid] | > 30 | > 30 |
| – | NC(=O)/C(=C/c1ccnc(-c2cc(C(F)(F)F)cc(C(F)(F)F)c2)n1)c1cccc(S(=O)(=O)N2CCC(F)(F)CC2)c1 [Compound 138, (E)-3-(2-(3,5-bis(trifluoromethyl)phenyl)pyrimidin-4-yl)-2-(3-((4,4-difluoropiperidin-1-yl)sulfonyl)phenyl)acrylamide] | 0.1 to 5 | > 30 |
| – | NC(=O)/C(=C/c1ccnc(-c2cc(C(F)(F)F)cc(C(F)(F)F)c2)n1)c1ccc(Cl)c(F)c1 [Compound 133, (E)-3-(2-(3,5-bis(trifluoromethyl)phenyl)pyrimidin-4-yl)-2-(4-chloro-3-fluorophenyl)acrylamide] | < 0.1 | > 30 |
| 0.1 to 5 | N#Cc1ccccc1/C(=C\c1ccnc(-c2cc(C(F)(F)F)cc(C(F)(F)F)c2)n1)C(N)=O [Compound 154, (E)-3-(2-(3,5-bis(trifluoromethyl)phenyl)pyrimidin-4-yl)-2-(2-cyanophenyl)acrylamide] | > 30 | – |

| SMILES | IC50 (MM1S cells) [µM] | IC50 (Z138 cells) [µM] | IC50 (3T3 cells) [µM] |
| --- | --- | --- | --- |
| CCOC(=O)/C=C/c1ccnc(-c2cc(C(F)(F)F)cc(C(F)(F)F)c2)n1 [Compound 105, ethyl (E)-3-(2-(3,5-bis(trifluoromethyl)phenyl)pyrimidin-4-yl)acrylate] | > 30 | > 30 | > 30 |
